Source: patent publication US11787865B2, “Bifunctional molecules for lysosomal targeting and related compositions and methods” (The Board of Trustees of the Leland Stanford Junior …, priority 2018, dated 2023)

What was measured:
[1] = cited from earlier work
[2] = molecular target: cation independent M6PR (CIM6PR) (Homo sapiens, UniProt P11717); conditions: relative to mannose-6-phosphate glycans; cited from earlier work
mouse IgG (IgG-AF647) = experiment: Cellular uptake of IgG-AF647 in HUH7 cells; format: cell-based; conditions: HUH7 cells incubated with inhibitor
Description: To assess whether a bifunctional molecule comprising ASGPR ligands could indeed shuttle cargo to lysosomes in hepatocytes, an assay schematically illustrated in FIG. 21 was employed. A bifunctional molecule comprising an anti-mouse IgG antibody conjugated to a poly(GalNAc-co-Ala) polymer was tested to determine whether the bifunctional molecule could shuttle extracellular fluorescent-labeled mouse IgG (IgG-AF647) into the intracellular compartment of hepatocytes. […] HEPG2 cells (hepatocellular carcinoma cell line) were incubated with 50 nM IgG-AF647 and 25 nM of anti-mouse conjugates for 1 hour. Cellular uptake was analyzed by flow cytometry. As shown by the bar graph, an approximately 8-fold increase in cell fluorescence was observed using the GalNAc-containing conjugate while the M6Pn-containing conjugate induced 2-fold increase over background.
Shown in FIG. 22 are results from the assay described for FIG. 21 but in HUH7 cells (another hepatocellular carcinoma cell line). […] In addition, controls were included in which the cells were incubated with M6PR or ASGPR inhibitors (monomeric M6P (mM6P) and monomeric GalNAc (mGalNAc), respectively).

cation independent M6PR (CIM6PR), sequence (P11717 41-2491): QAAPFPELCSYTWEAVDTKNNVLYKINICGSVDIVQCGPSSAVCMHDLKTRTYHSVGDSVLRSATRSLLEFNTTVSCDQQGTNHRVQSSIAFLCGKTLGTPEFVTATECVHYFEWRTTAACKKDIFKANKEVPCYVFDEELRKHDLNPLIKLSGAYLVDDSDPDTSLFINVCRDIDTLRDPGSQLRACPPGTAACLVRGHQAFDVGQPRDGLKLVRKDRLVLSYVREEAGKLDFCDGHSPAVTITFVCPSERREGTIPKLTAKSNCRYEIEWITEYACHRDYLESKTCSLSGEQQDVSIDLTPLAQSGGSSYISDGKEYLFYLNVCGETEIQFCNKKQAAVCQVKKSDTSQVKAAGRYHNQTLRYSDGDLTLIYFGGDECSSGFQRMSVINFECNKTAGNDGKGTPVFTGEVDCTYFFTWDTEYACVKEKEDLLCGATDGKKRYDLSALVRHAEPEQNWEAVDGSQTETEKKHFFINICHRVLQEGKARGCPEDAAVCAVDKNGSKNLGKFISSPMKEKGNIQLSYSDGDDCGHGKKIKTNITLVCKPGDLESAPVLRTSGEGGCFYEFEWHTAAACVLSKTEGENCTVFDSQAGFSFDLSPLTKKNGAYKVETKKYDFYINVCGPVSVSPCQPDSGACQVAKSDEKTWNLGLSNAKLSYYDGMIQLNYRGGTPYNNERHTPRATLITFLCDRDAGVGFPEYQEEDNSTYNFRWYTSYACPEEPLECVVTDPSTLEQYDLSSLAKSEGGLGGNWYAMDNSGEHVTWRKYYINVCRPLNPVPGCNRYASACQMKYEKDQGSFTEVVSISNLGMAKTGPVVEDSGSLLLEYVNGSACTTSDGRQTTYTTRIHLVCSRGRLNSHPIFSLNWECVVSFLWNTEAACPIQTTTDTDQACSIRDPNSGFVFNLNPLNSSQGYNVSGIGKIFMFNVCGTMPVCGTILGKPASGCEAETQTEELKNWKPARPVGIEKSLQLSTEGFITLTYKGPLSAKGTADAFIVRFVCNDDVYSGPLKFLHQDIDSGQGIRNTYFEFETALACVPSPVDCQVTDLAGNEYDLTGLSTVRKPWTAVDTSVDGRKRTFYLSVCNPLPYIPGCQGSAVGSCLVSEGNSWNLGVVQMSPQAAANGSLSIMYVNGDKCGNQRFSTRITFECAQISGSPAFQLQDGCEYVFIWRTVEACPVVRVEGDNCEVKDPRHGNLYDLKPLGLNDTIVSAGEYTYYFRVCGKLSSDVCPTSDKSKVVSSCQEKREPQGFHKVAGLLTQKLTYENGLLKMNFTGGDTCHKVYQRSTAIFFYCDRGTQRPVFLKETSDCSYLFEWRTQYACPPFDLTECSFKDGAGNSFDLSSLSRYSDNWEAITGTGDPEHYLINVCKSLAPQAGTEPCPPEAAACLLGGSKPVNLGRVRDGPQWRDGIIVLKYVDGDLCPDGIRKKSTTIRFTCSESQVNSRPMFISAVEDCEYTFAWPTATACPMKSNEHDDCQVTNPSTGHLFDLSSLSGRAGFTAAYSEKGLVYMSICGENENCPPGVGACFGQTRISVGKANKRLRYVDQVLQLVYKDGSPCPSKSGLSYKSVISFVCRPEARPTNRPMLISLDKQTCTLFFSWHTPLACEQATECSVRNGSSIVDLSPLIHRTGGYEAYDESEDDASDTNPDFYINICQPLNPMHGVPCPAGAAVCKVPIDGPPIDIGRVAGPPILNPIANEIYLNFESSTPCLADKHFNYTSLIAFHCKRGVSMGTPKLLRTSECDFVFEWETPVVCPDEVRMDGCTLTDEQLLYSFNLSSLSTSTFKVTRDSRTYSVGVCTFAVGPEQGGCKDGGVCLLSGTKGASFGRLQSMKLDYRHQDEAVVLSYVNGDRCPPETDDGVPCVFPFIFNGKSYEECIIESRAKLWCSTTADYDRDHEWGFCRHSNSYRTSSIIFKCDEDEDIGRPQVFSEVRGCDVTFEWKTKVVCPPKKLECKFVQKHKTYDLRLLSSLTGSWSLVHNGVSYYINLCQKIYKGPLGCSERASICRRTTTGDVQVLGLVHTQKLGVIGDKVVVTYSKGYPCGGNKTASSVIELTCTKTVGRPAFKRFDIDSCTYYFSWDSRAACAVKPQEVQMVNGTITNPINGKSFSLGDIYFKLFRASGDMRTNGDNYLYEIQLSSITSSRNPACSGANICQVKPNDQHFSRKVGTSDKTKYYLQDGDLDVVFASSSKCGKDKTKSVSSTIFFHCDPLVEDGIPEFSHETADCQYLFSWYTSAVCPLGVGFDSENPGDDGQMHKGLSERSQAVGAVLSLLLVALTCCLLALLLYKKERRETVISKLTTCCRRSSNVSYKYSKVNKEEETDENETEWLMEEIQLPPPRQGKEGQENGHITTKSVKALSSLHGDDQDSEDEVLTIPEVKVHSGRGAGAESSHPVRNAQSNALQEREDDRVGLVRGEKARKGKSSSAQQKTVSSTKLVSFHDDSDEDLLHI

Molecule: C=CC(=O)OC[C@@H](O)[C@@H](O)[C@H](O)[C@H](O)C=O [Mannose-6-acrylate glycans, Mannose-6-acrylate]
- serum stability compared to mannose-6-phosphate glycans [1]: better serum stability
- relative binding affinity for the CIM6PR, compared to mannose-6-phosphate glycans [2]: 0.7

Molecule: CC(=O)N[C@H]1C(O)O[C@H](CO)[C@H](O)[C@@H]1O (mixture of isomers) [mGalNAc, monomeric GalNAc]
- uptake of IgG-AF647 with conjugates in presence of M6PR or ASGPR inhibitor (mouse IgG (IgG-AF647)): Uptake was reduced

Molecule: O=P(O)(O)OC[C@H]1OC(O)[C@@H](O)[C@@H](O)[C@@H]1O (some centres unmarked) [mM6P, monomeric M6P]
- uptake of IgG-AF647 with conjugates in presence of M6PR or ASGPR inhibitor (mouse IgG (IgG-AF647)): Uptake was reduced

Molecule: Mannose-6-carboxylate [Mannose-6-carboxylate glycans]
- relative binding affinity for the CIM6PR, compared to mannose-6-phosphate glycans [2]: 0.3
